“And” between values parts separate entries of the source, which are not always exact repeats. Equal values may be shown once. Read-outs that look alike come from different tables or passages of the source.
Test: Pharmacokinetic/toxicokinetic profile of RTX after intravesical instillation in dogs
Assay type: in vivo, dog
Procedure: Local tolerance and the pharmacokinetic (PK), and toxicokinetic (TK) profile of RTX in dogs was determined after a single instillation of RTX into the bladder of dogs (n=6). The RTX formulations were prepared using aseptic techniques in a biological safety cabinet (BSC) by mixing the appropriate amount of diluent with the appropriate amount of RTX. Dosing formulation concentrations used were 1 and 10 mcg/mL.
Three male and three female dogs ranging in weight from 5.95 to 8.60 kg were used in the study. The dogs were assigned into Group 1 (receiving a dose of 1 mcg/mL RTX) or Group 2 (receiving a dose of 10 mcg/mL RTX) as shown in the Table 3 below.
RTX was administered via intravesical instillation into the urinary bladder. The animals were given a single dose of 25 or 250 mcg/dose in a total volume of 25 mL on Day 1 over a period of 1 hour (±5 minutes). RTX and diluent were administered to the dogs under general anesthesia via a Foley catheter placed into the bladder for 1 hour (±5 minutes).
Blood samples were collected from all animals on Day 1 pre-dose and at 0.5, 1, 2, 4, 6, 12, 24, 36, 48, 60, and 72 hours post-dose. The toxicokinetic (TK) parameters were determined for RTX, and if appropriate, the metabolites, from mean concentration-time data.
Cmax is the observed maximum plasma concentration from the start of dosing. Tmax is the time to reach the Cmax. AUC(0-T) is the area under the plasma concentration-time curve from time zero to the last measurable time point calculated by the linear trapezoidal rule.

[1] = male dogs 1003, 1005 individual, 250 mcg intravesical
[2] = male dogs, 250 mcg intravesical

SMILES: C=C(C)[C@]12C[C@@H](C)[C@@]34O[C@](Cc5ccccc5)(O[C@@H]1[C@@H]3C=C(COC(=O)Cc1ccc(O)c(OC)c1)C[C@]1(O)C(=O)C(C)=C[C@@H]41)O2 [RTX, resiniferatoxin]
- time by which RTX plasma concentrations fell to zero (male and female dogs, 250 mcg, post-dose): ≤ 4 h
- absorption into the systemic circulation (male and female dogs, single 250 mcg intravesical instillation): absorbed rapidly
- Plasma concentration of RTX (male dog 1001, 25 mcg intravesical, 0.5 h): BQL (*BQL—Below quantifiable limit (<50.0 pg/mL); adequate signal-to-noise enabled reporting value as estimate)
- Plasma concentration of RTX (male dog 1001, 25 mcg intravesical, 2 h): BQL (*BQL—Below quantifiable limit (<50.0 pg/mL); adequate signal-to-noise enabled reporting value as estimate)
- Plasma concentration of RTX (male dog 1001, 25 mcg intravesical, 4 h): BQL (*BQL—Below quantifiable limit (<50.0 pg/mL); adequate signal-to-noise enabled reporting value as estimate)
- Plasma concentration of RTX (male dog 1001, 25 mcg intravesical, 6 h): BQL (*BQL—Below quantifiable limit (<50.0 pg/mL); adequate signal-to-noise enabled reporting value as estimate)
- Plasma concentration of RTX (male dog 1001, 25 mcg intravesical, 12 h): BQL (*BQL—Below quantifiable limit (<50.0 pg/mL); adequate signal-to-noise enabled reporting value as estimate)
- Plasma concentration of RTX (male dog 1001, 25 mcg intravesical, 24 h): BQL (*BQL—Below quantifiable limit (<50.0 pg/mL); adequate signal-to-noise enabled reporting value as estimate)
- Plasma concentration of RTX (male dog 1001, 25 mcg intravesical, 36 h): BQL (*BQL—Below quantifiable limit (<50.0 pg/mL); adequate signal-to-noise enabled reporting value as estimate)
- Plasma concentration of RTX (male dog 1001, 25 mcg intravesical, 48 h): BQL (*BQL—Below quantifiable limit (<50.0 pg/mL); adequate signal-to-noise enabled reporting value as estimate)
- Plasma concentration of RTX (male dog 1001, 25 mcg intravesical, 60 h): BQL (*BQL—Below quantifiable limit (<50.0 pg/mL); adequate signal-to-noise enabled reporting value as estimate)
- Plasma concentration of RTX (male dog 1001, 25 mcg intravesical, 72 h): BQL (*BQL—Below quantifiable limit (<50.0 pg/mL); adequate signal-to-noise enabled reporting value as estimate)
- Plasma concentration of RTX (male dog 1001, 25 mcg intravesical, Predose): BQL (*BQL—Below quantifiable limit (<50.0 pg/mL); adequate signal-to-noise enabled reporting value as estimate)
- AUC(0-T) [1]: 0.365 ng·h/mL
- AUC(0-T)/Dose [1]: 1.42 pg·h/mL/µg and 1.46 pg·h/mL/µg
- Cmax [1]: 0.44 ng/mL
- Cmax/Dose [1]: 1.06 pg/mL/µg and 1.76 pg/mL/µg
- Plasma concentration of RTX (male dogs 1003, 1005 individual, 250 mcg intravesical, 0.5 h): 0.44 ng/mL
- Plasma concentration of RTX (male dogs 1003, 1005 individual, 250 mcg intravesical, 1 h): 0.151 ng/mL
- Plasma concentration of RTX (male dogs 1003, 1005 individual, 250 mcg intravesical, 2 h): 0.0633 ng/mL
- Plasma concentration of RTX (male dogs 1003, 1005 individual, 250 mcg intravesical, 4 h): 0 ng/mL
- Plasma concentration of RTX (male dogs 1003, 1005 individual, 250 mcg intravesical, 6 h): 0 ng/mL
- Plasma concentration of RTX (male dogs 1003, 1005 individual, 250 mcg intravesical, 12 h): 0 ng/mL
- Plasma concentration of RTX (male dogs 1003, 1005 individual, 250 mcg intravesical, 24 h): 0 ng/mL
- Plasma concentration of RTX (male dogs 1003, 1005 individual, 250 mcg intravesical, 36 h): 0 ng/mL
- Plasma concentration of RTX (male dogs 1003, 1005 individual, 250 mcg intravesical, 48 h): 0 ng/mL
- Plasma concentration of RTX (male dogs 1003, 1005 individual, 250 mcg intravesical, 60 h): 0 ng/mL
- Plasma concentration of RTX (male dogs 1003, 1005 individual, 250 mcg intravesical, 72 h): 0 ng/mL
- Plasma concentration of RTX (male dogs 1003, 1005 individual, 250 mcg intravesical, Predose): 0 ng/mL
- AUC(0-T)/Dose, Mean [2]: 1.44 pg·h/mL/µg
- Cmax/Dose, Mean [2]: 1.41 pg/mL/µg
- Plasma concentration of RTX, Mean (male dogs, 250 mcg intravesical, Predose): 0 ng/mL
- AUC(0-t) (male, dog, plasma, 250 ug, male dogs 1003, 1005 individual, 250 mcg intravesical, read-out: AUC(0-T)): 0.356 ng·h/mL
- Cmax (male, dog, plasma, 250 ug, male dogs 1003, 1005 individual, 250 mcg intravesical, read-out: Cmax): 0.264 ng/mL
- Tmax (male, dog, plasma, 250 ug, male dogs 1003, 1005 individual, 250 mcg intravesical, read-out: Tmax): 60 min
- AUC(0-t) (male, dog, plasma, 250 ug, male dogs, 250 mcg intravesical, read-out: AUC(0-T), Mean): 0.361 ± 0.00636 ng·h/mL
- Cmax (male, dog, plasma, 250 ug, male dogs, 250 mcg intravesical, read-out: Cmax, Mean): 0.352 ± 0.124 ng/mL
- Tmax (male, dog, plasma, 250 ug, male dogs, 250 mcg intravesical, read-out: Tmax, Mean): 45 ± 21.2 min
- Tmax (male, dog, plasma, other: intravesical instillation, 250 ug, male dogs, 250 mcg intravesical, read-out: Tmax, Mean): 45 min
- concentration at 1 h (male, dog, plasma, other: intravesical instillation, 25 mcg, male dog 1001, 25 mcg intravesical, 1 h, read-out: Plasma concentration of RTX): 0.0155 ng/mL
- concentration at 0.5 h (male, dog, plasma, other: intravesical instillation, 250 mcg, male dogs 1003, 1005 individual, 250 mcg intravesical, 0.5 h, read-out: Plasma concentration of RTX): 0.257 ng/mL
- concentration at 1 h (male, dog, plasma, other: intravesical instillation, 250 mcg, male dogs 1003, 1005 individual, 250 mcg intravesical, 1 h, read-out: Plasma concentration of RTX): 0.264 ng/mL
- concentration at 2 h (male, dog, plasma, other: intravesical instillation, 250 mcg, male dogs 1003, 1005 individual, 250 mcg intravesical, 2 h, read-out: Plasma concentration of RTX): 0.0597 ng/mL
- concentration at 4 h (male, dog, plasma, other: intravesical instillation, 250 mcg, male dogs 1003, 1005 individual, 250 mcg intravesical, 4 h, read-out: Plasma concentration of RTX): 0 ng/mL
- concentration at 6 h (male, dog, plasma, other: intravesical instillation, 250 mcg, male dogs 1003, 1005 individual, 250 mcg intravesical, 6 h, read-out: Plasma concentration of RTX): 0 ng/mL
- concentration at 12 h (male, dog, plasma, other: intravesical instillation, 250 mcg, male dogs 1003, 1005 individual, 250 mcg intravesical, 12 h, read-out: Plasma concentration of RTX): 0 ng/mL
- concentration at 24 h (male, dog, plasma, other: intravesical instillation, 250 mcg, male dogs 1003, 1005 individual, 250 mcg intravesical, 24 h, read-out: Plasma concentration of RTX): 0 ng/mL
- concentration at 36 h (male, dog, plasma, other: intravesical instillation, 250 mcg, male dogs 1003, 1005 individual, 250 mcg intravesical, 36 h, read-out: Plasma concentration of RTX): 0 ng/mL
- concentration at 48 h (male, dog, plasma, other: intravesical instillation, 250 mcg, male dogs 1003, 1005 individual, 250 mcg intravesical, 48 h, read-out: Plasma concentration of RTX): 0 ng/mL
- concentration at 60 h (male, dog, plasma, other: intravesical instillation, 250 mcg, male dogs 1003, 1005 individual, 250 mcg intravesical, 60 h, read-out: Plasma concentration of RTX): 0 ng/mL
- concentration at 72 h (male, dog, plasma, other: intravesical instillation, 250 mcg, male dogs 1003, 1005 individual, 250 mcg intravesical, 72 h, read-out: Plasma concentration of RTX): 0 ng/mL
- concentration at 0.5 h (male, dog, plasma, other: intravesical instillation, 250 mcg, male dogs, 250 mcg intravesical, 0.5 h, read-out: Plasma concentration of RTX, Mean): 0.349 ng/mL
- concentration at 1 h (male, dog, plasma, other: intravesical instillation, 250 mcg, male dogs, 250 mcg intravesical, 1 h, read-out: Plasma concentration of RTX, Mean): 0.208 ng/mL
- concentration at 2 h (male, dog, plasma, other: intravesical instillation, 250 mcg, male dogs, 250 mcg intravesical, 2 h, read-out: Plasma concentration of RTX, Mean): 0.0615 ng/mL
- concentration at 4 h (male, dog, plasma, other: intravesical instillation, 250 mcg, male dogs, 250 mcg intravesical, 4 h, read-out: Plasma concentration of RTX, Mean): 0 ng/mL
- concentration at 6 h (male, dog, plasma, other: intravesical instillation, 250 mcg, male dogs, 250 mcg intravesical, 6 h, read-out: Plasma concentration of RTX, Mean): 0 ng/mL
- concentration at 12 h (male, dog, plasma, other: intravesical instillation, 250 mcg, male dogs, 250 mcg intravesical, 12 h, read-out: Plasma concentration of RTX, Mean): 0 ng/mL
- concentration at 24 h (male, dog, plasma, other: intravesical instillation, 250 mcg, male dogs, 250 mcg intravesical, 24 h, read-out: Plasma concentration of RTX, Mean): 0 ng/mL
- concentration at 36 h (male, dog, plasma, other: intravesical instillation, 250 mcg, male dogs, 250 mcg intravesical, 36 h, read-out: Plasma concentration of RTX, Mean): 0 ng/mL
- concentration at 48 h (male, dog, plasma, other: intravesical instillation, 250 mcg, male dogs, 250 mcg intravesical, 48 h, read-out: Plasma concentration of RTX, Mean): 0 ng/mL
- concentration at 60 h (male, dog, plasma, other: intravesical instillation, 250 mcg, male dogs, 250 mcg intravesical, 60 h, read-out: Plasma concentration of RTX, Mean): 0 ng/mL
- concentration at 72 h (male, dog, plasma, other: intravesical instillation, 250 mcg, male dogs, 250 mcg intravesical, 72 h, read-out: Plasma concentration of RTX, Mean): 0 ng/mL
